Experimental data from paper PMC10901950, “Neuroprotective and Anti-inflammatory Effects of Rubiscolin-6 Analogs with Proline Surrogates in Position 2” (Neurochemical Research, 2023).

Assays:
[1] = tested on: LPS-stimulated RAW 264.7 cells; assay: Intracellular ROS formation in LPS-stimulated RAW 264.7 cells; type: cell-based, mouse; details: LPS 1 µg/mL
Method: The cytotoxic and anti-inflammatory effects of peptides on RAW 264.7 cells were estimated using MTT assay. Cells were incubated with peptides (0.1–10 µM) for 24 h to assess their cytoprotective activity. In the anti-inflammatory model, RAW 264.7 cells were exposed to LPS (Millipore Sigma, Darmstadt, Germany) at 1 µg/mL in the absence/presence of peptide at non-toxic concentrations (0.1–10 µM). Then, the MTT reagent was added to wells, and cells were incubated for 1.5 h at 37 °C. After this time, MTT was removed, 100 µL DMSO was added, and the resulting absorbance was read in a microplate reader (Synergy 2 BioTek Microplate Reader, Winooski, VT, USA) at 570 nm.
(§1) The detection of ROS generated in injured cells was evaluated using the 5(6)-carboxy-2ʹ,7ʹ-dichlorofluorescein diacetate (carboxy-H2DCFDA) reagent (Invitrogen, Bleiswijk, Netherlands). After incubation, cells were washed with ice-cold Phosphate-Buffer Saline (PBS). Then, the carboxyl-H2DCFDA (100 µL, 20 µM) reagent was added and incubated for 1 h at 37 °C. Finally, the fluorescence intensity was measured at wavelengths of […], and ROS levels were presented in percentage of control (non-treated cells).

[2] = tested on: LPS-stimulated RAW 264.7 cells; assay: Nitric oxide production in LPS-stimulated RAW 264.7 cells (Griess); type: cell-based, mouse; details: LPS 1 µg/mL
Method: The level of NO production was determined in RAW 264.7 cells. Briefly, after cells attachment, they were treated with LPS (Millipore Sigma, Darmstadt, Germany) at 1 µg/mL for 24 h, and then the peptides were added for an additional 24 h. After cells’ treatment, the medium was collected, and the accumulation of NO metabolite in the cell culture supernatant was measured using Griess reagent (1% sulfanilamide and 0.1% naphthylethylenediamine dihydrochloride; Sigma Aldrich), where 50 µL of the supernatant was mixed with 50 µL of Griess reagent (40 mg/mL) in a 96-well plate. After incubation at room temperature and darkness for 10 min, the absorbance was measured at 540 nm. Cells treated with LPS without samples were used as the positive control of the inflammatory response.

Caspase-3 = Caspase-3 activity in 6-OHDA-treated SH-SY5Y cells; type: cell-based, human; details: STAU 1 µM, positive control
Method: Caspase-3 activity was assessed using “Caspase-3 fluorometric assay” (Sigma, St. Louis, MO, USA) with minor changes adapted by Silva et al.. The cells were treated with 6-OHDA (100 µM) for 6 h in the presence or absence of peptides. After this period, the culture medium was removed, and cells were rinsed with ice-cold PBS and collected by centrifugation at 3300×g for 5 min. The pellets were resuspended in lysis buffer, incubated for about 20 min on ice and finally centrifuged at 22,500×g, 4 °C, for 20 min. Cell lysates were processed following the manufacturer’s protocol, and fluorescence was read at wavelengths of 360 nm (excitation) and 460 nm (emission). Caspase-3 activity was calculated through the curve slope and presented as Δ fluorescence (a.u.)/mg of protein/min). Staurosporine (STAU, 1 µM) was used as positive control.

AKT = assay: Western blot, AKT phosphorylation in 6-OHDA-treated SH-SY5Y cells; type: cell-based, human; details: peptide 10 µM, 2.5-10 min, 6-OHDA 100 µM treated cells
Method: The neuroblastoma SH-SY5Y cells were grown in a 6-well plate and when 80–90% confluent treated with 6-OHDA (100 µM) for 24 h. Then cells were stimulated with peptides for 2.5, 5, 7.5 and 10 min (for AKT) or 24 h (for mTOR). When needed, a 30 min pre-incubation step with LY 294002 was included before analogs and 6-OHDA addition. Stimulation was terminated by aspiration of the medium. Cells were washed 2 times with ice-cold PBS, and then 200 µL of ice-cold lysis buffer [150 mM NaCl, 20 mM Tris–HCl, glycerol, 5 mM EDTA, 0.5 mM phenylmethylsulphonylfluoride (PMSF), 10% Triton X-100, 100 mM protease inhibitors, pH 7.4] was added. Cells were incubated on ice for 15 min. Lysates were then centrifuged at 12,000×g for 10 min at 4 °C, and the supernatants were used as the total cell lysates. The protein content in the supernatants was quantified using the Bio-Rad protein assay kit. Equal amounts of protein were separated on 10% sodium dodecyl sulfate (SDS)-polyacrylamide gels and transferred to polyvinylidene difluoride membranes from (PVDF, Millipore, Cork, Ireland). Non-specific binding was blocked with tris-buffered saline Tween-20 (TBS-T: 150 mM NaCl, 20 mM Tris–HCl, 0.1% Tween 20, pH 7.5) containing 5% nonfat milk for 2 h at room temperature. Then, the membrane was incubated overnight at 4 °C with one of the following specific primary antibodies: Vinculin (1:1000 dilution; Cell Signalling Technology, Danvers, MA, USA), p-AKT (1:1000 dilution; Cell Signalling Technology, Danvers, MA, USA), AKT (1:1000 dilution; Cell Signalling Technology, Danvers, MA, USA), p-mTOR (1:1000 dilution; Cell Signalling Technology, Danvers, MA, USA), mTOR (1:1000 dilution; Cell Signalling Technology, Danvers, MA, USA). After incubation, membranes were washed six times per 5 min with TBS-T. In the next step, membranes were incubated with HRP-conjugated secondary antibodies (1:1000 dilution; Cell Signalling Technology, Danvers, MA, USA) for 1 h. Following six washes with TBS-T, the protein bands were detected with the Clarity Western ECL reagent from Bio-Rad. The band intensity was quantified by NIH ImageJ densitometric analysis. For quantification, specific phosphorylation was calculated as the ratio of phosphorylated AKT or mTOR signals to the total Akt or mTOR signal detected. Values of unstimulated samples were set to 1.0. The original immunoblots are provided in Supplementary data.

SH-SY5Y cells [3] = assay: Mitochondrial membrane potential (JC-1) in 6-OHDA-treated SH-SY5Y cells; type: cell-based, human; details: 6-OHDA 100 µM, 6 h, JC-1
Method: Mitochondrial function was assessed by monitoring changes in MMP (∆Ψm) using the fluorescent probe, JC-1 fluorescence dye (5,5′,6,6′-tetrachloro-1,1′,3,3′-tetraethyl-imidacarbocyanine iodide, Molecular Probes, T3168, Eugene, Oregon, USA). The assay was performed according to the method described by Silva et al.. Briefly, SH-SY5Y cells were exposed 6 h to 6-OHDA (100 μM) in the presence or absence of peptides. After incubation, cells were washed with ice-cold PBS, and then JC-1 reagent (3 µM, 200 µL) was added for 15 min at 37 °C. Afterwards, JC-1 was removed, and cells were washed with PBS. The formation of JC-1 aggregates (490 nm of excitation and 590 nm of emission) and the monomeric form of JC-1 (490 nm of excitation and 530 nm of emission) was accompanied simultaneously in the plate reader for 30 min. Results were expressed as the ratio of the monomers/aggregates of JC-1 in the percentage of control.

SH-SY5Y cells [4] = assay: Neuroprotection in 6-OHDA-treated SH-SY5Y cells (MTT); type: cell-based, human; details: 6-OHDA 100 µM, 24 h, vehicle 100.00 ± 4.60%
Method: The neuroprotective experiments were performed in an in vitro model of a human neuroblastoma cell line (SH-SY5Y) obtained from the German Collection of Microorganisms and Cell Cultures GmbH (DSMZ) Bank (ACC 209). Cells were cultured in Dulbecco’s Modified Eagle’s Medium: Nutrient Mixture F12 (DMEM:F12) supplemented with 1% antibiotic/antimycotic (Amphotericin B, Penicillin and Streptomycin) (Biowest, Nuaillé, France) and 10% (v/v) Fetal Bovine Serum (FBS) (Biowest, Riverside, MO, USA). The anti-inflammatory experiments were performed in an in vitro model of mouse macrophage-like RAW 264.7 cells, purchased from American Type Culture Collection (ATCC, Manassas, VA, USA). Cells were maintained in DMEM medium (Gibco™, Grand Island, NY) and supplemented with 10% bovine calf serum (BCS) (Gibco™, Grand Island, NY) and 1% penicillin–streptomycin (Sigma-Aldrich, St. Louis, MO, USA). Cell cultures were kept at 37 °C in 5% CO2/humidified air.
Cells were incubated with peptides (0.1–10 µM) for 24 h to assess their cytotoxic activity. In the neuroprotective model, SH-SY5Y cells were exposed to 6-OHDA (100 µM) in the absence/presence of peptide at non-toxic concentrations (0.1–10 µM). When needed, a 30 min pre-incubation step with β-funaltrexamine (β-FNA, µ-opioid receptor antagonist, 10 µM), naltrindole (NLT, δ-opioid receptor antagonist, 10 µM), 2’-amino-3’-methoxyflavone (PD 98059, MAPK kinase 1 (MEK 1) inhibitor, 50 µM) or 2-(4-morpholinyl)-8-phenyl-4H-1-benzopyran-4-one (LY 294002, PI3-K inhibitor, 20 µM). Stimulation was terminated by aspiration of the medium and adding 100 µL MTT (1.2 mM) per well. Cells were incubated for 1 h at 37 °C. After this time, MTT was removed, and 100 µL DMSO was added. The resulting absorbance was read in a microplate reader (Biotek, Epoch/2 microplate reader, Winooski, VT, USA) at 570 nm.
Cell metabolic activity (cytotoxicity) was calculated as the percentage of the value obtained for cells incubated with compounds compared to control cells treated with the medium.

SH-SY5Y cells [5] = assay: Intracellular ROS production in 6-OHDA-treated SH-SY5Y cells; type: cell-based, human; details: 6-OHDA 100 µM
Method: as §1

“lipopolysaccharide [LPS, reference compound]” was tested, and the “ROS level compared to the control” value [1] was “increased almost twice” and the “NO levels compared to the unstimulated control” value [2] was “exceeded 330%”.

For CN[C@@H]1C[C@H]2O[C@@](C)([C@@H]1OC)n1c3ccccc3c3c4c(c5c6ccccc6n2c5c31)C(=O)NC4 [STAU, Staurosporine, reference compound], the “effect on Caspase-3 activity” value (Caspase-3) was “marked increase”.

In the case of NCCc1cc(O)c(O)cc1O [6-OHDA, 6-hydroxydopamine, reference compound], the AKT phosphorylation (AKT) is reported as “blocked”, the “increase of MMP depolarization compared to vehicle” value (SH-SY5Y cells [3]) is reported as 114% and the “viable cells after 6-OHDA exposure” value (SH-SY5Y cells [4]) is reported as 48.63 ± 1.25 % of viable cells. The “increase of ROS levels compared with vehicle” value (SH-SY5Y cells [5]) was “around 80%”.
